Test systems include A498; A549; BT-549; COLO 205; Hs-578T; MCF7; NCI/ADR-RES; PC-3; SF-295; SK-MEL-5; SR; SW-620; TK-10; UACC-62; CAKI-1; HCC 2998; KM12; MDA-MB-435; OVCAR-4.
Common to all, as to assay: inhibition of tumour cell growth, NCI panel, 48 h

Consider 12 compounds from ChEMBL document CHEMBL1201862, “PubChem BioAssay data set” (2004).

The structures appear in SMILES notation.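 Cultured in 96-well plates, cells were exposed to test compound for 48 hours across five concentrations. Abbreviation: GI50, concentration required for 50% inhibition of growth.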 Activity calls are given as the source filed them. Cut-off read from the data, not from the text of the source: active = GI50 up to about 1.1 µM and inactive = higher. Where only a bound is given, the exact number is not on record here.

Take `Oc1ccc(CCNCc2cc3c(cc2Br)OCO3)cc1`: the GI50 was 50 µM (inactive) in the assay with A498; > 100 µM (inactive) in the assay on A549; 92.5 µM (inactive) with BT-549; 18.8 µM (inactive) with COLO 205; > 100 µM (inactive) in the assay on Hs-578T; 70.1 µM (inactive) in the assay on MCF7. The GI50 in the assay on NCI/ADR-RES was 47.5 µM (inactive); in the assay with PC-3, 46.9 µM (inactive); in the assay on SF-295 it was 65.2 µM (inactive); with SK-MEL-5 it was 27.1 µM (inactive); with SR it was 32.4 µM (inactive); with SW-620 it was > 100 µM (inactive). The GI50 is 75.9 µM (inactive) with TK-10 and 52.7 µM (inactive) in the assay with UACC-62.
As for `O=c1oc2ccccc2c2nc3ccccc3cc12`, the GI50 in the assay on A498 is 33 µM (inactive); in the assay on A549, 99.8 µM (inactive); with BT-549 it was 51.2 µM (inactive); with CAKI-1, 33.8 µM (inactive); in the assay on COLO 205 it was > 100 µM (inactive); in the assay on HCC 2998, 72.1 µM (inactive). The GI50 with Hs-578T was 25.9 µM (inactive); in the assay on KM12 it was > 100 µM (inactive); with MDA-MB-435 it was > 100 µM (inactive); in the assay with NCI/ADR-RES, 97.7 µM (inactive); in the assay on OVCAR-4 it was 22.1 µM (inactive); in the assay on PC-3 it was 56.2 µM (inactive). Moreover, the GI50 with SF-295 was 34.8 µM (inactive); in the assay with SK-MEL-5, > 100 µM (inactive); in the assay with SR it was > 100 µM (inactive); in the assay with SW-620, > 100 µM (inactive); in the assay with TK-10, 58.7 µM (inactive); with UACC-62 it was 35.3 µM (inactive).
For `O=C1CC(C(OCc2ccccc2)C(OCc2ccccc2)C(OCc2ccccc2)C(COCc2ccccc2)OCc2ccccc2)CC(=O)N1` (centres undefined), the GI50 in the assay with A498, in the assay on A549, in the assay with BT-549, in the assay with HCC 2998, with Hs-578T and with MDA-MB-435 was > 100 µM (inactive) each time. Also, the GI50 with NCI/ADR-RES, in the assay with OVCAR-4, in the assay with PC-3, with SF-295, with SK-MEL-5 and in the assay with SR was > 100 µM (inactive) each time. In addition, the GI50 in the assay with SW-620 and in the assay on TK-10 was > 100 µM (inactive) in each case.
Turning to `NC1(c2cc3ccccc3s2)CCCCCC1`, the GI50 in the assay on A498 is 20.7 µM (inactive); in the assay with A549, 18.1 µM (inactive); with BT-549, 17.7 µM (inactive); in the assay on CAKI-1, 13.8 µM (inactive); in the assay on COLO 205, 12.6 µM (inactive); in the assay on HCC 2998 it was 1.98 µM (inactive). In addition, the GI50 in the assay with KM12 was 16 µM (inactive); in the assay with MCF7 it was 16.1 µM (inactive); with MDA-MB-435 it was 16.1 µM (inactive); in the assay with NCI/ADR-RES it was 15 µM (inactive); in the assay with OVCAR-4, 14.4 µM (inactive); in the assay with PC-3, 11.7 µM (inactive). Also, the GI50 in the assay on SF-295 was 18.3 µM (inactive); in the assay with SK-MEL-5, 15.1 µM (inactive); with SR, 16.2 µM (inactive); in the assay on SW-620 it was 16.3 µM (inactive); in the assay on TK-10, 15.4 µM (inactive); in the assay with UACC-62 it was 18 µM (inactive).
Consider `COc1ccc(/C=N/Nc2nnc3c(n2)c2ccccc2c2nn(-c4ccccc4Cl)nc23)cc1`, for which the GI50 with A498 was > 100 µM (inactive); in the assay with A549 it was > 100 µM (inactive); with BT-549, > 100 µM (inactive); with CAKI-1, > 100 µM (inactive); in the assay on COLO 205, > 100 µM (inactive); with Hs-578T, 71.6 µM (inactive). Further, the GI50 in the assay on KM12, in the assay on MDA-MB-435, in the assay on NCI/ADR-RES, in the assay on OVCAR-4, in the assay on PC-3 and with SF-295 was > 100 µM (inactive) each time. Besides, the GI50 in the assay with SK-MEL-5, with SW-620, in the assay on TK-10 and with UACC-62 was > 100 µM (inactive) each time.
In the case of `CO/N=C(\C(=O)[N-]n1cn[n+](CC(=O)OC(C)(C)C)c1)c1csc(NC(c2ccccc2)(c2ccccc2)c2ccccc2)n1`, the GI50 in the assay with A498, in the assay on A549, in the assay on BT-549, with CAKI-1, in the assay with COLO 205 and with HCC 2998 was > 10 µM (inactive) each time. The GI50 with Hs-578T, in the assay with KM12, in the assay on MCF7, in the assay with NCI/ADR-RES, in the assay on OVCAR-4 and in the assay with PC-3 was > 10 µM (inactive) throughout. In addition, the GI50 in the assay with SF-295, in the assay on SK-MEL-5, in the assay on SR, in the assay with SW-620 and in the assay with TK-10 was > 10 µM (inactive) in each case.
Take `Nc1cc(N2CCOCC2)nc(=O)n1-c1ccc(Cl)cc1`: the GI50 in the assay with A498, with A549, in the assay with BT-549, in the assay with CAKI-1, in the assay on COLO 205 and with HCC 2998 was > 100 µM (inactive) each time. The GI50 in the assay on KM12, with MCF7, in the assay on MDA-MB-435, in the assay with NCI/ADR-RES, in the assay with PC-3 and in the assay with SF-295 was > 100 µM (inactive) throughout. The GI50 with SK-MEL-5, with SR, in the assay with SW-620 and with UACC-62 was > 100 µM (inactive) each time.
With `NC1CC(=O)c2cc(Br)sc21` (centres undefined), the GI50 in the assay with A498, in the assay on A549, with BT-549, in the assay with CAKI-1, in the assay on COLO 205 and in the assay with HCC 2998 was > 100 µM (inactive) in each case. For the same compound, the GI50 in the assay on KM12, in the assay on MCF7, with MDA-MB-435, in the assay with NCI/ADR-RES, in the assay on PC-3 and with SK-MEL-5 was > 100 µM (inactive) each time. For the same compound, the GI50 in the assay on SR, with SW-620, in the assay on TK-10 and with UACC-62 was > 100 µM (inactive) throughout.
As for `N#CSc1[nH]cnc1C(N)=O`, the GI50 is > 100 µM (inactive) with A498; > 100 µM (inactive) with A549; > 80.7 µM (inactive) in the assay with BT-549; > 44.4 µM (inactive) in the assay with CAKI-1; > 81.8 µM (inactive) in the assay with COLO 205; > 100 µM (inactive) with HCC 2998. Further, the GI50 is > 100 µM (inactive) with Hs-578T; > 100 µM (inactive) in the assay with KM12; > 100 µM (inactive) with MDA-MB-435; > 85.5 µM (inactive) with NCI/ADR-RES; > 100 µM (inactive) with OVCAR-4; > 100 µM (inactive) in the assay on PC-3. Besides, the GI50 in the assay on SF-295 is > 100 µM (inactive); in the assay with SK-MEL-5 it was > 100 µM (inactive); in the assay with SR, < 0.01 µM (active); with SW-620 it was 90.6 µM (inactive); in the assay with TK-10, > 100 µM (inactive); with UACC-62 it was 79.6 µM (inactive).
With `CC(C)=CCN1CC(C)C(=O)Nc2ccccc21` (centres undefined), the GI50 in the assay on A498, with A549, in the assay on BT-549, in the assay with CAKI-1, in the assay with COLO 205 and in the assay on HCC 2998 was > 100 µM (inactive) in each case. In addition, the GI50 with Hs-578T is > 100 µM (inactive); in the assay with KM12, > 100 µM (inactive); with MCF7, 61.4 µM (inactive); in the assay with MDA-MB-435, > 100 µM (inactive); in the assay on OVCAR-4 it was > 100 µM (inactive); in the assay on PC-3, > 100 µM (inactive). The GI50 in the assay on SF-295 is > 100 µM (inactive); with SK-MEL-5, 42.6 µM (inactive); with SR it was > 100 µM (inactive); in the assay on SW-620, > 100 µM (inactive); with TK-10, > 100 µM (inactive).
As to `CC(C)CC(Nc1c(O)ccc2ccccc12)C(=O)O` (centres undefined), the GI50 is 23.3 µM (inactive) with A498; > 100 µM (inactive) with A549; 19.5 µM (inactive) in the assay with BT-549; 21.2 µM (inactive) with CAKI-1; > 100 µM (inactive) in the assay on COLO 205; 25.2 µM (inactive) in the assay on HCC 2998. The GI50 with Hs-578T is 21.6 µM (inactive); in the assay on KM12, 30.6 µM (inactive); in the assay with MCF7, 41.2 µM (inactive); in the assay on MDA-MB-435 it was 17.3 µM (inactive); with NCI/ADR-RES it was 37.8 µM (inactive); with OVCAR-4, 51.4 µM (inactive). Also, the GI50 in the assay with SF-295 is 20.5 µM (inactive); in the assay with SK-MEL-5 it was 18.3 µM (inactive); in the assay on SR, 28.1 µM (inactive); with SW-620, 34.4 µM (inactive); with TK-10, 39.9 µM (inactive); in the assay on UACC-62, 23.8 µM (inactive).
For `COc1cc2c(c(OC)c1)C(C)=NC(C)C2` (centres undefined), the GI50 in the assay on A498, in the assay on A549, in the assay on BT-549, with CAKI-1, with COLO 205 and in the assay on HCC 2998 was > 100 µM (inactive) each time. The GI50 in the assay on Hs-578T, in the assay on KM12, in the assay with MCF7, with MDA-MB-435, in the assay on PC-3 and in the assay on SF-295 was > 100 µM (inactive) throughout. Besides, the GI50 in the assay with SK-MEL-5, in the assay on SR, with SW-620, in the assay with TK-10 and with UACC-62 was > 100 µM (inactive) in each case.
